These results are taken from article PMC6990646 (ACS Omega, 2020).

Converted amounts (≈) assume the structure as drawn. “And” between values parts separate entries of the source, which are not always exact repeats. Equal entries are not always repeated.

As a reminder, the IC50 is the midpoint of a concentration-inhibition curve. High values mean a need for much substance, low ones inhibition by little substance. The CC50 is the concentration giving 50% cytotoxicity. Read a high CC50 as better tolerance by the cells. Broadly, the EC50 is the concentration needed to bring the measured effect to its halfway point.

Series [1] concerns ED-43/SG-Feo (VYG) replicon of HCV genotype 4a. Briefly: Antiviral bioassay against ED-43/SG-Feo. The format is cell-based. Conditions: for IC50: HCVcc genotype 4; for mean % of reduction, HCVcc genotype 4: nontoxic dose of compound.
Another series concerns HSV-1. Conditions: for IC50: herpes simplex virus, plaque reduction; for mean % of reduction, herpes simplex virus: nontoxic dose of compound.
In a further series the test system is Hep2 cell line. In words: Cytotoxicity test on Hep2 cell line. In kind it is cell-based. Conditions: adenovirus type 7 columns; host cells Hep-2.
In another series the test system is Vero cell line. In words: Cytotoxicity test on Vero cell line. In kind it is cell-based. Conditions: herpes simplex virus table; host cells Vero.
A further series has as its system FRHK-4 cell line. In words: Cytotoxicity test on FRHK-4 cell line. In kind it is cell-based. Conditions: hepatitis A virus HM 175 columns; host cells FRHK4.
The subject of another series is HAV HM175. Briefly: Plaque reduction assay against HAV HM175. In kind it is cell-based, hepatitis A virus HM 175. Particulars: hepatitis A virus HM 175, plaque reduction. On the technique in general: In a plaque reduction assay, fewer plaques than in the control indicate reduced infectivity or spread.
The next series deals with Huh 7.5 cell line. Briefly: Cytotoxicity test on Huh 7.5 cell line. The format is cell-based. Particulars: HCVcc genotype 4 columns; host cells Huh 7.5.
The subject of another series is HAdV7. In words: Plaque reduction assay against adenovirus 7. In kind it is cell-based, human adenovirus type 7. Particulars: for mean % of reduction, adenovirus type 7: nontoxic dose of compound.
The next series has as its system ADV7. Particulars: cited from earlier work.

Take `O=C(CNc1nc(NS(=O)(=O)c2ccccc2)ncc1-c1nc2ccccc2s1)c1ccc(Br)cc1` [9a, N-(5-(Benzo[d]thiazol-2-yl)-4-((2-(4-bromophenyl)-2-oxoethyl)amino)pyrimidin-2-yl)benzenesulfonamide]: the IC50 in series [1] turned out to be 0.12 µg/µL (≈ 207 µM); in the series on HSV-1 it was 0.063 µg/µL (≈ 109 µM); in the series on HAV HM175, 0.078 µg/µL (≈ 134 µM); in the series with HAdV7 (adenovirus type 7, plaque reduction) it was 0.12 µg/µL (≈ 207 µM). The “mean % of reduction, HCVcc genotype 4” value in series [1] was 50 ± 0.9%. Also, the “mean % of reduction, herpes simplex virus” value in the series with HSV-1 was 90% and 90 ± 2.5%. Moreover, the CC50 was 0.26 µg/µL (≈ 448 µM) in the series on Hep2 cell line, 0.27 µg/µL (≈ 465 µM) with Vero cell line, 0.24 µg/µL (≈ 413 µM) with FRHK-4 cell line and 0.25 µg/µL (≈ 431 µM) with Huh 7.5 cell line. In the series with HAdV7, the “mean % of reduction, adenovirus type 7” value turned out to be 50 ± 0.9%.

For `O=C(CNc1nc(NS(=O)(=O)c2ccccc2)ncc1-c1nc2ccccc2s1)c1ccc(Cl)cc1` [9b, N-(5-(Benzo[d]thiazol-2-yl)-4-((2-(4-chlorophenyl)-2-oxoethyl)amino)pyrimidin-2-yl)benzenesulfonamide], the values for the 50% inhibitory concentration (IC50) (in [1]; in the series with HSV-1; with HAV HM175) were 0.086 µg/µL (≈ 160 µM), 0.074 µg/µL (≈ 138 µM) and 0.086 µg/µL (≈ 160 µM), respectively. For the same compound, in series [1], the “mean % of reduction, HCVcc genotype 4” value stood at 60 ± 1.2%. The “mean % of reduction, herpes simplex virus” value in the series with HSV-1 is 70% and 70 ± 1.5%. In addition, the figures for the CC50 with Vero cell line, in the series on FRHK-4 cell line and in the series with Huh 7.5 cell line were 0.24 µg/µL (≈ 448 µM), 0.23 µg/µL (≈ 429 µM) and 0.25 µg/µL (≈ 466 µM), respectively. In addition, the “mean % of reduction, adenovirus type 7” value with HAdV7 is 40 ± 0.8%.

With `NC(=O)c1ncn([C@@H]2O[C@H](CO)[C@@H](O)[C@H]2O)n1` [ribavirin], in the series with ADV7, the EC50 was 27.8 µg/mL (≈ 114 µM).
